# Test results from patent US20250011368A1, “DLL3 TARGETING PEPTIDES AND CONSTRUCTS THEREOF” (MARIANA ONCOLOGY INC., priority 2023, published 2025).
# Bridge positions count the residues as written; N and C are the ends. Square brackets hold non-standard residues; d marks the D form. Peptide text beside a SMILES is read from it. * marks the point of attachment. ξ: configuration not given here. DOTA = O=C(O)CN1CCN(CC(=O)O)CCN(CC(=O)*)CCN(CC(=O)O)CC1; Trp(5-F) = N[C@@H](Cc1c[nH]c2ccc(F)cc12)C(=O)O; Trp(7-aza) = N[C@@H](Cc1c[nH]c2ncccc12)C(=O)O; Phe(4-F) = N[C@@H](Cc1ccc(F)cc1)C(=O)O; Gly(4-THP) = N[C@H](C(=O)O)C1CCOCC1; Cha = N[C@@H](CC1CCCCC1)C(=O)O; Cba = N[C@@H](CC1CCC1)C(=O)O; Chg = N[C@H](C(=O)O)C1CCCCC1; Nle = CCCC[C@H](N)C(=O)O; Aze = O=C(O)[C@@H]1CCN1; ξK = NCCCCC(N)C(=O)O
# Target: T1, human DLL3 (Homo sapiens, UniProt Q9NYJ7)
# T1 sequence (Q9NYJ7 27-618): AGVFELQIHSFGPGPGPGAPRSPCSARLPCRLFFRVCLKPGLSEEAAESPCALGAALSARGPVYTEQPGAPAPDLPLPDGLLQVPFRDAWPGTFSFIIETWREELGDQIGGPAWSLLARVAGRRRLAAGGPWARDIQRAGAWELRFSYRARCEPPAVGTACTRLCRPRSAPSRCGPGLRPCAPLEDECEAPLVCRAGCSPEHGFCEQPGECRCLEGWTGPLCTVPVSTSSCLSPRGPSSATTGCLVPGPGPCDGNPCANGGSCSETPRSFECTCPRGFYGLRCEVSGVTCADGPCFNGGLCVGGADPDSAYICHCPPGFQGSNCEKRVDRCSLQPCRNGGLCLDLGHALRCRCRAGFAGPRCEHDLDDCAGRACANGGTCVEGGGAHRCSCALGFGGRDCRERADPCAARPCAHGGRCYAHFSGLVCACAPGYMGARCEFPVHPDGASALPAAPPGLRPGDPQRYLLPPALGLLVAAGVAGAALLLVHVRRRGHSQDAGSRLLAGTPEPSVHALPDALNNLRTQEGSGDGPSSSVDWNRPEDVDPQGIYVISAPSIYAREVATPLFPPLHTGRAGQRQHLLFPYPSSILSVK
# Test: Affinity determination by Surface Plasmon Resonance (SPR)
# Type: binding
# Conditions: 25° C., biotinylated human DLL3 immobilized on streptavidin sensor chip, 1:1 binding model; read-out: SPR KD
# Description: SPR studies were performed on the compounds disclosed herein using the following protocol.
# Biotinylated target ligand human DLL3 was immobilized on a streptavidin sensor chip. A reference surface was set up for nonspecific binding and refractive index changes. For analysis of the kinetics of interactions, varying concentrations of samples were injected at a flow rate of 100 μL/minute using running buffer containing 20 mM phosphate buffer with 2.7 mM KCl, 137 mM NaCl, 0.05% Surfactant P20 and 2% DMSO. Sensorgram curves were fitted with 1:1 binding model, and affinity and kinetic parameters were obtained using Biacore Insight evaluation 4.0. software.
row,Kd,SMILES
1,10 to 100 nM,"CC(=O)N[C@@H](Cc1c[nH]c2ccc(F)cc12)C(=O)N[C@H](C(=O)N[C@H](C(=O)N[C@H]1CSSC[C@@H](C(=O)N[C@@H](Cc2c[nH]c3ncccc23)C(=O)N2CC[C@H]2C(=O)NC(CCCCNC(=O)CN2CCN(CC(=O)O)CCN(CC(=O)O)CCN(CC(=O)O)CC2)C(N)=O)NC(=O)[C@H](CC(=O)O)NC(=O)[C@H](Cc2cnc[nH]2)NC(=O)[C@H](Cc2ccc(F)cc2)NC(=O)[C@H](CC(N)=O)NC(=O)[C@H](CC(N)=O)NC1=O)C1CCOCC1)[C@@H](C)O (stereo partly drawn) [compound 123, Ac-(5Fluoro-W)-T-(THPG)-C(3)-N-N-(4Fluoro-F)-H-D-C(3)-(7Aza-W)-(Aze)-[D-Lys(DOTA)]-NH2] (Ac-[Trp(5-F)]T[Gly(4-THP)]CNN[Phe(4-F)]HDC[Trp(7-aza)][Aze][ξK](DOTA)-NH2; disulfide 4-10)"
2,10 to 100 nM,"CCCC[C@H](NC(=O)[C@@H](NC(=O)[C@H](Cc1c[nH]c2ccc(F)cc12)NC(C)=O)[C@@H](C)O)C(=O)N[C@H]1CSSC[C@@H](C(=O)N[C@@H](Cc2c[nH]c3ncccc23)C(=O)N2CC[C@H]2C(=O)NC(CCCCNC(=O)CN2CCN(CC(=O)O)CCN(CC(=O)O)CCN(CC(=O)O)CC2)C(N)=O)NC(=O)[C@H](CC(=O)O)NC(=O)[C@H](Cc2cnc[nH]2)NC(=O)[C@H](Cc2ccc(F)cc2)NC(=O)[C@H](CC(N)=O)NC(=O)[C@H](CC(N)=O)NC1=O (stereo partly drawn) [compound 124, Ac-(5Fluoro-W)-T-(Nle)-C(3)-N-N-(4Fluoro-F)-H-D-C(3)-(7Aza-W)-(Aze)-[D-Lys(DOTA)]-NH2] (Ac-[Trp(5-F)]T[Nle]CNN[Phe(4-F)]HDC[Trp(7-aza)][Aze][ξK](DOTA)-NH2; disulfide 4-10)"
3,1 to 10 nM,"CC(=O)N[C@@H](Cc1c[nH]c2ccc(F)cc12)C(=O)N[C@H](C(=O)N[C@@H](CC1CCCCC1)C(=O)N[C@H]1CSSC[C@@H](C(=O)N[C@@H](Cc2c[nH]c3ncccc23)C(=O)N2CC[C@H]2C(=O)N[C@H](CCCCNC(=O)CN2CCN(CC(=O)O)CCN(CC(=O)O)CCN(CC(=O)O)CC2)C(N)=O)NC(=O)[C@H](CC(=O)O)NC(=O)[C@H](Cc2cnc[nH]2)NC(=O)[C@H](Cc2ccc(F)cc2)NC(=O)[C@H](CC(N)=O)NC(=O)[C@H](CC(N)=O)NC1=O)[C@@H](C)O [compound 125, Ac-(5Fluoro-W)-T-(CHA)-C(3)-N-N-(4Fluoro-F)-H-D-C(3)-(7Aza-W)-(Aze)-[D-Lys(DOTA)]-NH2] (Ac-[Trp(5-F)]T[Cha]CNN[Phe(4-F)]HDC[Trp(7-aza)][Aze][dK](DOTA)-NH2; disulfide 4-10)"
4,10 to 100 nM,"CC(=O)N[C@@H](Cc1c[nH]c2ccc(F)cc12)C(=O)N[C@H](C(=O)N[C@@H](CC1CCC1)C(=O)N[C@H]1CSSC[C@@H](C(=O)N[C@@H](Cc2c[nH]c3ncccc23)C(=O)N2CC[C@H]2C(=O)N[C@H](CCCCNC(=O)CN2CCN(CC(=O)O)CCN(CC(=O)O)CCN(CC(=O)O)CC2)C(N)=O)NC(=O)[C@H](CC(=O)O)NC(=O)[C@H](Cc2cnc[nH]2)NC(=O)[C@H](Cc2ccc(F)cc2)NC(=O)[C@H](CC(N)=O)NC(=O)[C@H](CC(N)=O)NC1=O)[C@@H](C)O [compound 126, Ac-(5Fluoro-W)-T-(CBA)-C(3)-N-N-(4Fluoro-F)-H-D-C(3)-(7Aza-W)-(Aze)-[D-Lys(DOTA)]-NH2] (Ac-[Trp(5-F)]T[Cba]CNN[Phe(4-F)]HDC[Trp(7-aza)][Aze][dK](DOTA)-NH2; disulfide 4-10)"
5,10 to 100 nM,"CC(=O)N[C@@H](Cc1c[nH]c2ccc(F)cc12)C(=O)N[C@H](C(=O)N[C@H](C(=O)N[C@H]1CSSC[C@@H](C(=O)N[C@@H](Cc2c[nH]c3ncccc23)C(=O)N2CC[C@H]2C(=O)N[C@H](CCCCNC(=O)CN2CCN(CC(=O)O)CCN(CC(=O)O)CCN(CC(=O)O)CC2)C(N)=O)NC(=O)[C@H](CC(=O)O)NC(=O)[C@H](Cc2cnc[nH]2)NC(=O)[C@H](Cc2ccc(F)cc2)NC(=O)[C@H](CC(N)=O)NC(=O)[C@H](CC(N)=O)NC1=O)C1CCCCC1)[C@@H](C)O [compound 127, Ac-(5Fluoro-W)-T-(Chg)-C(3)-N-N-(4Fluoro-F)-H-D-C(3)-(7Aza-W)-(Aze)-[D-Lys(DOTA)]-NH2] (Ac-[Trp(5-F)]T[Chg]CNN[Phe(4-F)]HDC[Trp(7-aza)][Aze][dK](DOTA)-NH2; disulfide 4-10)"
